Where “and” joins values, the source holds several entries; their conditions need not be identical. Equal values may be shown once.
Assays:
Nox2 [1] = biological target: T1, Nox2 (Homo sapiens, UniProt P04839); assay: ROS (superoxide) generation in whole COS-Nox2 cells, L-012 chemiluminescence; type: cell-based; details: for IC50: whole COS-Nox2 cells stimulated with 5 μM PMA; for Activity in primary library screen: screened at 100, 50, 25, and 12.5 μM, COS-Nox2 cells
T1 construct: expressed in transfected cells
T1 sequence (P04839 2-570 limits assumed): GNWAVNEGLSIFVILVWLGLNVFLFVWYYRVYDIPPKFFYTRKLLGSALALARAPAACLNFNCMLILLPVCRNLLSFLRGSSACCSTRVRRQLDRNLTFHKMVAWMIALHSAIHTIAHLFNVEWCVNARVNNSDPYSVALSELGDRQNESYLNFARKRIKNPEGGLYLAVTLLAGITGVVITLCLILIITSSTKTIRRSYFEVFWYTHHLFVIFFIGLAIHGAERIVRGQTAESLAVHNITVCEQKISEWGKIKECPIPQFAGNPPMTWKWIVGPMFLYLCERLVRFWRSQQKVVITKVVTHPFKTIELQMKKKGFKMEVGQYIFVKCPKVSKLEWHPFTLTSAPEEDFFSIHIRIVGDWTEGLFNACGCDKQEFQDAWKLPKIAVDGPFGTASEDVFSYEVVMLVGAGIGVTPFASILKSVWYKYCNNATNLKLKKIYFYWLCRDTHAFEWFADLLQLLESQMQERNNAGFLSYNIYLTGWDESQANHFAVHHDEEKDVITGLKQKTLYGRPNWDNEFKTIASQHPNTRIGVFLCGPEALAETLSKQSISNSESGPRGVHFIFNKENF
Excerpt: (§1) All cell culture reagents were obtained from Invitrogen, unless indicated. COS-22 (COS-7 cells stably expressing human p22^phox) and COS-Nox2 (a.k.a. COS-phox) cells (COS-7 cells stably expressing human p22^phox, Nox2, p47^phox and p67^phox) were kindly provided by Dr. Mary C. Dinauer (Indiana University, School of Medicine) (Price et al., Blood, 2002, 99:2653-2661). COS-22 cells were maintained in Dulbecco's Modified Eagle Medium (DMEM) with 4.5 g/L glucose, L-glutamine and sodium pyruvate containing 10% heat-inactivated fetal bovine serum (FBS), 100 units/ml penicillin and 100 μg/ml streptomycin (complete media) supplemented with 1.8 mg/ml G418 (Calbiochem/EMB Bioscience, Gibbstown, N.J.). COS-Nox2 cells were maintained in complete media supplemented with 1.8 mg/mL G418, 1 μg/mL puromycin (Sigma, St Louis, Mo.) and 0.2 mg/mL hygromycin B (Invitrogen, Carlsbad, Calif.). HEK-Nox5 cells were kindly provided by Dr. David Fulton (Georgia Health Sciences University) and maintained in complete media.
COS-Nox2, COS-Nox1/NOXO1/NOXA1, HEK-Nox5 and COS-22 cells were re-plated in OPTIMEM into 384-well white micro-plates (Greiner-Bio One GmbH, Germany) at a density of 2.5×10^3 cells/well for COS-Nox2 and 5×10^4 cells/well for all others. The cells were incubated at 37° C. in PBS containing […] L-012 for 10 min. Reaction was initiated by addition of 5 μM PMA in the case of Nox2 or 1 μM PMA/0.1 μM Ionomycin in the case of Nox5. Since Nox1 was constitutively active, Nox1-derived O2^•− was assessed by comparison to non-transfected cells (Cos22). Luminescence was quantified over time using a Biotek Synergy 4 Hybrid Multi-Mode Microplate Reader. The specificity of L-012 for O2^•− was confirmed by the addition of SOD (150 U/mL).
(§2) All data are expressed as means±SEM. IC50 values were determined using the GraphPad Prism software (GraphPad Software, San Diego, Calif.) for non-linear regression three-parameters, with constrain values of 100 and 0 for top and bottom, respectively, and assumes a Hill slope of 1.
Heterologous Nox1, 2, 4, and 5 cell systems were used as a testing paradigm to identify a probe molecule that inhibits Nox2 selectively over Nox1, 4, and 5. An acceptable probe would also show a lack of activity against XO, which also produces ROS. The latter screen would serve two purposes: (1) to eliminate drugs that inhibit an oxidase of distinct composition; and (2) to preclude agents that directly scavenge ROS. A cell-based primary assay using stable Nox2-transfected COS cells (Price et al., Blood 2002, 99:2653-2661) with L-012 chemiluminescence (Daiber et al., Free Radic. Biol. Med. 2004, 36:101-111) was used as a detection system for O2^•−-generation.

Nox2 [2] = biological target: T1, Nox2; assay: ROS (H2O2) generation in whole COS-Nox2 cells, Amplex Red assay; type: cell-based; details: for Nox2 inhibitory activity: Table 2; for Selectivity for Nox2 over other Nox isoforms: cell-based assays for each Nox system; for IC50: whole COS-Nox2 cells stimulated with 5 μM PMA, Amplex Red
Excerpt: as §1
H2O2 production was quantified in intact COS-Nox4 cells by Amplex® Red. Briefly, COS-Nox4 cells (5×10^4 cells/ml) were re-plated into 384-well plate in assay buffer (25 mM Hepes, pH 7.4, containing 0.12 M NaCl, 3 mM KCl, 1 mM MgCl2). The cells were incubated in the presence or absence of drugs at 37° C. in assay buffer supplemented with 0.1 mM Amplex® Red, and 0.32 U/ml of horse radish peroxidase (HRP) for 15 min. Fluorescence measurements were made using a Biotek Synergy 4 Hybrid Multi-Mode Microplate Reader with a 530/25-excitation and a 590/35-emission filter. The reaction was monitored at 37° C. for 1 h. A standard curve of known H2O2 concentrations was included on each plate. Nox4 activity was obtained by calculating the rate of H2O2 production as RFU/min and then subtracting the equivalent value given by non-transfected COS-22 cells. Similarly, H2O2 production by Nox2 cells was also measured by Amplex® Red as described above but in the presence of 150 U/mL of SOD and the reaction was initiated by addition of 5 μM PMA. The rate of H2O2 production in this case was calculated as RFU/min after the subtraction of the equivalent value given by non-stimulated cells. Data are expressed as % of vehicle control.
as §2

SMILES | IC50 (Nox2 [1]) | Nox2 inhibitory activity (Nox2 [2]) | Selectivity for Nox2 over other Nox isoforms (Nox2 [2]) | IC50 (Nox2 [2]) | Activity in primary library screen (Nox2 [1])
C=C(C)CC1C2c3c(Br)cccc3C(CC2(C)C)N1Cc1cccs1 (racemic) [Compound 11h, (±)-(1S,4R,9S)-5-Bromo-3,3-dimethyl-9-(2-methylallyl)-10-(thiophen-2-ylmethyl)-1,2,3,4-tetrahydro-1,4-(epiminomethano)naphthalene] | 38 ± 11 µM |  | specificity for Nox2 over Nox1, 4, and 5 | 32 ± 1.9 µM | 
C=C(C)CC1C2c3c(Br)cccc3C(CC2(C)C)N1Cc1ccc2c(c1)OCO2 (racemic) [Compound 11d, (±)-(1S,4R,9S)-10-(Benzo[d][1,3]dioxol-5-ylmethyl)-5-bromo-3,3-dimethyl-9-(2-methylallyl)-1,2,3,4-tetrahydro-1,4-(epiminomethano)naphthalene] | 88 ± 22 µM | decreased |  | 40 µM | 
C=C(C)CC1C2c3c(Br)cccc3C(CC2(C)C)N1Cc1cccc(F)c1 (racemic) [Compound 11f, (±)-(1S,4R,9S)-5-Bromo-10-(3-fluorobenzyl)-3,3-dimethyl-9-(2-methylallyl)-1,2,3,4-tetrahydro-1,4-(epiminomethano)naphthalene] | 68 ± 22 µM |  |  | 51 µM | 
C=C(C)CC1C2c3c(Br)cccc3C(CC2(C)C)N1Cc1ccnc2ccccc12 (racemic) [Compound 11b, (±)-(1S,4R,9S)-5-Bromo-3,3-dimethyl-9-(2-methylallyl)-10-(quinolin-4-ylmethyl)-1,2,3,4-tetra-hydro-1,4-(epiminomethano)naphthalene] | > 100 µM | completely abolished |  | > 100 µM | 
CC(C)CC1NC2CC(C)(C)C1c1c(Br)cccc12 (racemic) [Compound 13] | 31 ± 3.8 µM | retained inhibitory activity |  | 78 ± 19 µM | 
C=C(C)CC1NC2CC(C)(C)C1c1c(Br)cccc12 (racemic) [Compound 7, (±)-(1S,4R,9S)-5-Bromo-3,3-dimethyl-9-(2-methylallyl)-1,2,3,4-tetrahydro-1,4-(epimino-methano)-naphthalene] | 45 µM and 46 µM |  |  | 40 µM and 25 to 40 µM | hit
C=C(C)CC1C2c3c(Br)cccc3C(CC2(C)C)N1Cc1c[nH]c2ccccc12 (racemic) [Compound 11c, (±)-(1S,4R,9S)-10-((1H-Indol-3-yl)methyl)-5-bromo-3,3-dimethyl-9-(2-methylallyl)-1,2,3,4-tetrahydro-1,4-(epiminomethano)naphthalene] | > 100 µM | completely abolished |  | > 100 µM | 
C=C(C)CC1C2c3ccccc3C(CC2(C)C)N1Cc1cccc(F)c1 (racemic) [Compound 11a, (±)-(1S,4R,9S)-10-(3-Fluorobenzyl)-3,3-dimethyl-9-(2-methylallyl)-1,2,3,4-tetrahydro-1,4-(epiminomethano)naphthalene] | 68 ± 33 µM |  |  | 30 ± 7.5 µM | 
C=C(C)CC1NC2CC(C)(C)C1c1ccccc12 (racemic) [Compound 8, (±)-(1S,4R,9S)-3,3-Dimethyl-9-(2-methylallyl)-1,2,3,4-tetrahydro-1,4-(epiminomethano)-naphthalene] | > 100 µM | inactive |  | > 100 µM | 
C=C(C)C[C@@H]1N[C@H]2CC(C)(C)[C@@H]1c1c(Br)ccc(Br)c12 [Compound 9] | 40 ± 2.8 µM |  |  | 25 ± 10 µM | active
C=C(C)CC1C2c3c(Br)cccc3C(CC2(C)C)N1Cc1cc(C)on1 (racemic) [Compound 11e, (±)-3-(1S,4R,9S)-5-Bromo-3,3-dimethyl-9-(2-methylallyl)-1,2,3,4-tetrahydro-1,4-(epimino-methano) naphthalen-10-yl)methyl)-5-methylisoxazole] | 48 ± 23 µM |  |  | 12 ± 0.5 µM | 
C=C(C)CC1C2c3c(Br)cccc3C(CC2(C)C)N1CCCCC (racemic) [Compound 11g, (±)-(1S,4R,9S)-5-Bromo-3,3-dimethyl-9-(2-methylallyl-10-pentyl-1,2,3,4-tetrahydro-1,4-(epiminomethano)naphthalene] | 20 ± 4.9 µM |  | specificity for Nox2 over Nox1, 4, and 5 | 20 ± 1.9 µM | 

Further lines, with some results ahead:

IC50 (Nox2 [1]) | Nox2 inhibitory activity (Nox2 [2]) | Selectivity for Nox2 over other Nox isoforms (Nox2 [2]) | IC50 (Nox2 [2]) | SMILES | Activity in primary library screen (Nox2 [1])
9 ± 0.9 µM | comparable | greater selectivity over Nox1 | 64 ± 35 µM | C=C(C)CC1NC2CC(C)(C)C1c1c(-c3ccc(Cl)c(Cl)c3)cccc12 (racemic) [Compound 12a, (±)-(1S,4R,9S)-5-(3,4-Dichlorophenyl)-3,3-dimethyl-9-(2-methylallyl)-1,2,3,4-tetrahydro-1,4-(epiminomethano)naphthalene] | 
> 100 µM | inactive |  | 79 µM | C=C(C)CC1C2c3c(-c4ccc(Cl)c(Cl)c4)cccc3C(CC2(C)C)N1CCCCC (racemic) [Compound 12c] | 
> 100 µM | inactive |  | > 100 µM | C=C(C)CC1C2c3c(-c4ccc(Cl)c(Cl)c4)cccc3C(CC2(C)C)N1Cc1ccc2c(c1)OCO2 (racemic) [Compound 12b, (±)-(1S,4R,9S)-10-(Benzo[d][1,3]dioxol-5-ylmethyl)-5-(3,4-dichlorophenyl)-3,3-dimethyl-9-(2-methylallyl)-1,2,3,4-tetrahydro-1,4-(epiminomethano)-naphthalene] | 
> 100 µM | completely abolished activity |  | 27 ± 4.7 µM | C=C(C)CC1C2c3c(Br)cccc3C(CC2(C)C)N1S(C)(=O)=O (racemic) [Compound 14a, (±)-(1S,4R,9S)-5-Bromo-3,3-dimethyl-9-(2-methylallyl)-10-(methylsulfonyl)-1,2,3,4-tetrahydro-1,4-(epiminomethano)naphthalene] | 
> 100 µM | completely abolished activity |  | > 100 µM | C=C(C)CC1C2c3c(Br)cccc3C(CC2(C)C)N1S(=O)(=O)c1ccc(F)cc1 (racemic) [Compound 14b, (±)-(1S,4R,9S)-5-Bromo-10-((4-fluorophenyl)sulfonyl)-3,3-dimethyl-9-(2-methylallyl)-1,2,3,4-tetrahydro-1,4-(epiminomethano)naphthalene] | 
